# Like-named read-outs stand apart in the source and are kept apart here.
# What was measured:
# lymphedema tissue = assay: Histological (H&E) analysis of lymphedema tissue of the right hind leg; type: in vivo; conditions: 7th day after surgery, right hind leg of mouse
# Excerpt: (§1) Tissue samples were collected on the 7th day after surgery to induce lymphedema at a location 15 mm-25 mm from the right leg of the mouse. The harvested tissue samples were fixed with 10% formalin solution, and the specimens were cut to a thickness of 5 μm. Sections were deparaffinized in 100% xylene, rehydrated with a series of 100% ethanol, 95% ethanol, 90% ethanol, 80% ethanol, and 70% ethanol, and washed with water. Sections were reacted with hematoxylin solution at room temperature. After washing in PBS, sections were stained with eosin at room temperature. Images were acquired by a Pannoramic viewer microscope (3[…] Ltd., Hungary). Prepared slides were incubated using anti-mouse PPARγ (Santa Cruz Biotechnology, USA) and Alexa Fluor 488 and DAPI (Life Technologies, USA). Samples were analyzed using a Nikon ECLIPSE 80i microscope (Nikon Instruments Inc., Japan).
# In FIG. 3A, the scale bar of the upper panel is 500 μm, and the scale bar of the lower panel is 100 μm.
# In FIG. 4A, the scale bar of the upper panel is 200 μm, and the scale bar of the lower panel is 100 μm.
# [1] = test system: lymphedema induced in mice; assay: Prophylactic effect on lymphedema formation, surgically induced murine lymphedema model (volume); type: in vivo, mouse; conditions: 7th day after surgery, oral administration 7 days before surgery, then once every two days, vs control group
# Description: All animal tests in the following examples were performed after obtaining approvals by the Institutional Animal Care and Use Committee (IACUC) of Sungkyunkwan University School of Medicine (Approval No.: […]-20150037). All methods were performed according to the approved guidelines. […] Briefly, major lymphatic sites including inguinal lymph nodes, popliteal lymph nodes, deep inguinal lymph nodes and femoral lymphatic vessels were removed, and the lower right leg of the mouse was limitedly cauterized under anesthesia.
# Compounds 1, 7m, and 14a were each orally administered to mice for 7 days before surgical induction of lymphedema in mice.
# On the other hand, in the control group, the compound 1 treatment group, the compound 7m treatment group, and the compound 14a treatment group, lymphedema was induced through surgery. After surgery, the compounds were administered once every two days.
# The volume of lymphedema was measured on the 7th day after surgery, and the size of the lymphedema was recorded using a caliper ruler by a person who was blinded to the treatment status of the mice.
# PPARγ = assay: Immunofluorescence staining of PPARγ in epidermal layer of lymphedema tissue; type: in vivo; conditions: mouse
# Excerpt: as §1
# In addition, peroxisome […] (PPARγ) is a major regulator of lipogenesis, and as shown in FIG. 4B showing the results of immunofluorescence staining, the distribution of PPARγ in the epidermal layer of lymphedema tissue after treatment with compound 1 and compound 14a was suppressed.
# [2] = test system: PPARγ and a target protein Fabp4; assay: Expression of PPARγ and Fabp4 in lymphedema tissue (western blot, mRNA); type: in vivo; conditions: mouse
# [3] = Pharmacokinetic analysis in mice after I.V. and oral administration; type: in vivo, mouse; conditions: male CD-1 mice; for Cmax: read-out: Cmax (maximum plasma concentration)
# Description: Compounds were administered to 5-week-old male CD-1 mice through 1 mg/kg tail vein administration (administration volume of 5 mL/kg), 20 mg/kg oral administration, and 100 mg/kg oral administration, respectively. Three mice were used for each independent experiment. Blood samples were taken in an amount of 20 μL to 30 μL via the saphenous vein at 5, 15, 30, 60, 120, 180, 360, and 1440 minutes.
# In addition, pharmacokinetic parameters were calculated from non-compartmental analysis using Win Non-lin.
# In Table 3, T1/2 denotes the terminal half-life, Cmax denotes the maximum plasma concentration, AUC-O denotes the area under the plasma concentration-time curve from time zero to infinity, and indicates exposure concentration of whole blood, and BA represents bioavailability expressed as (AUCpo/AUCiv)×100. […] Cmax and AUC∞ are mean±SD values obtained from three male ICR mice. Regarding blood exposure during systemic circulation of the compound, the compound was orally administered at an amount of 100 mg/kg, and then, AUC (area under the curve) was measured, and the obtained measurements were compared.
# [4] = Physicochemical properties (pKa, logP, solubility)
# Excerpt: Compound 1 is butein and the therapeutic effect on lymphedema thereof is disclosed in Korean Patent Publication No. 10-1533197 (published on Jul. 2, 2015).
# [5] = test system: LPS-induced TNFα production in mouse peritoneal macrophages; assay: LPS-induced TNFα production in mouse peritoneal macrophages (ELISA); type: cell-based; conditions: Mus musculus, Peritoneal macrophage, 24 h, mouse peritoneal macrophages, 100 ng/ml LPS 24 h; measured twice, mean ± standard deviation; read-out: IC50, dose-dependent inhibition of TNFα production in macrophages
# Description: To isolate peritoneal macrophages, male Balb/c mice were intraperitoneally injected with 2 ml of 3.5% sterile thioglycolate (B D, Sparks, Md., USA) 4 days before being sacrificed. Mice were sacrificed by cervical dislocation, and peritoneal secretory cells were aseptically isolated through peritoneal washing with cold DMEM (HyClone, Logan, Utah, USA) containing 10% FBS (fetal bovine serum; HyClone) and 1% penicillin-streptomycin. After centrifugation, cells were resuspended and counted using a TC20 Cell Counter (Bio-Rad Laboratories, Hercules, Calif., USA). Peritoneal secretory cells were left in a 24-well plate overnight at 37° C., and non-adherent cells were removed. The cells were then stimulated with 100 ng/ml lipopolysaccharide (LPS) for 24 hours. The supernatant was collected during cytokine analysis, and the level of TNFα in the supernatant was measured using BD OptEIA mouse ELISA sets (BD Biosciences, San Diego, Calif., USA) according to the manufacturer's protocol. […] IC50 (μM) values were measured twice, respectively, and expressed as mean±standard deviation.
# TNFα = assay: mRNA expression of TNFα in lymphedema tissue; type: in vivo; conditions: 7th day after surgery, mouse
# Excerpt: As a result, it was confirmed that the expression level of TNFα mRNA was decreased in the compound 1 treatment group and the compound 14a treatment group (with respect to the control group, *: P<0.05; with respect to compound 1, #: P<0.05).
# [6] = mouse, plasma, iv, I.V, 1 mg/Kg
# [7] = mouse, plasma, po, P.O, 20 mg/Kg
structure (smiles),measurement,setting,value
"O=C(Oc1cc(O)ccc1C(=O)/C=C/c1ccc(O)c(O)c1)c1ccccc1 [compound 14a, (E)-2-(3-(3,4-dihydroxyphenyl)acryloyl)-5-hydroxyphenyl benzoate]","development of adipose tissue in the epidermal layer (H&E, FIG. 4A)",lymphedema tissue,inhibiting the development of adipose tissue in the epidermal layer
same,"neutrophil infiltration and epidermal layer of lymphedema tissue (H&E, FIG. 3A)",lymphedema tissue,decreased neutrophil infiltration and ameliorated the epidermal layer of lymphedema tissue
same,volume of lymphedema reduced by,[1],70%
same,distribution of PPARγ in the epidermal layer of lymphedema tissue (FIG. 4B),PPARγ,suppressed
same,levels of PPARγ and Fabp4 mRNA (FIG. 4D),[2]; lymphedema tissue,more significant efficacy even compared to compound 1
same,"expression of PPARγ and Fabp4 in lymphedema tissue (western blot, FIG. 4C)",[2],reduced the expression of PPARγ
same,T1/2 (terminal half-life),"[3]; I.V, 1 mg/Kg",81.6 min
same,Tmax,"[3]; I.V, 1 mg/Kg",12 min
same,T1/2 (terminal half-life),"[3]; P.O, 20 mg/Kg",34.2 min
same,Tmax,"[3]; P.O, 20 mg/Kg",24 min
same,Cmax (maximum plasma concentration),"[3]; P.O, 100 mg/Kg",1600 ng/mL
same,T1/2 (terminal half-life),"[3]; P.O, 100 mg/Kg",21 min
same,Tmax,"[3]; P.O, 100 mg/Kg",24 min
same,BA (bioavailability),"[3]; P.O, 100 mg/Kg, (AUCpo/AUCiv)×100",7.5%
same,AUC(0-inf),[3]; [6],163 ng·h/mL
same,Cmax,[3]; [6],110 ng/mL
same,AUC(0-inf),[3]; [7],141 ng·h/mL
same,bioavailability,"[3]; mouse, plasma, po, P.O, 20 mg/Kg, (AUCpo/AUCiv)×100, read-out: BA (bioavailability)",4%
same,Cmax,[3]; [7],83 ng/mL
same,melting point,,204.9 °C
same,logP (partition coefficient),[4],3.47
same,solubility,"[4]; water solubility, read-out: Solubility",136 µg/mL
same,IC50,[5],14.6 ± 1.56 µM
same,expression level of TNFα mRNA in lymphedema tissue (FIG. 3B),TNFα,decreased
